Measurements reported in US8013011B2, “Treatment and prevention of benign pigmented moles (naevi) using artemisinine and the derivatives thereof” (EPIPHARM GmbH, priority 2005, dated 2011).

Test: Skin tolerability observed during the topical treatments
Assay type: in vivo, human
Settings: described topical treatments
Text: A low-risk, non-invasive preventative or therapeutic treatment of acquired nevus cell nevi or of acquired or congenital nevus cell nevi (=birthmarks) with artemisinine and derivatives thereof (dihydroartemisinine, arteether, arthemeter, artesunate semisynthetic derivatives thereof and synthetically analogous compounds) represents enormous progress in the treatment of nevus cell nevi and could drastically reduce the risk of skin cancer. The invention is thus of great significance not only medically but also socioeconomically. […] It is also remarkable that healthy tissue is not damaged and the treatment is painless and simple.

With `C[C@H]1[C@H](OC(=O)CCC(=O)O)O[C@@H]2O[C@@]3(C)CC[C@H]4[C@H](C)CC[C@@H]1[C@@]24OO3` [artesunate] the allergic skin reactions was “No allergic skin reactions”.
